Reference: publication PMC7406636, “In vivo and in silico characterization of apocynin in reducing organ oxidative stress: A pharmacokinetic and pharmacodynamic study” (Pharmacology Research & Perspectives, 2020)

Legend:
[1] = test system: Nox2; assay: Brain Nox2 expression by immunofluorescence, HFD mouse model; format: in vivo; conditions: HFD brain sections, apocynin 5 mmol/L in drinking water, vs HFD
Experimental: The experiments were performed exactly as described previously. ^23 Midbrain (containing hippocampus and ventral tegmental area regions) cryosections were used for the experiments. Primary antibodies were used at 1:250 dilution. Bovine serum albumin (2%) was used in the place of primary antibodies as a negative control. Biotin‐conjugated secondary antibody was used at 1:1000 dilution. Specific binding of antibodies was detected by streptavidin‐Cy3. Images were captured using a Nikon fluorescence microscope (Eclipse Ti2‐E). Fluorescence intensities were quantified as described above.

[2] = test system: O2·‐ production in tissue homogenates; assay: O2·- production in organ homogenates by lucigenin-chemiluminescence, HFD mouse model; format: in vivo; conditions: HFD 16 weeks, apocynin 5 mmol/L in drinking water, vs HFD
Experimental: Apocynin was supplied in drinking water (5 mmol/L) for the treatment group. Body weights were measured weekly. Mice were sacrificed at 11 months of age and organs were harvested for further experiments. ROS production was measured using tissue homogenates by three complementary techniques: lucigenin (5 µmol/L)‐chemiluminescence (Molecular Devices); DHE (2 µmol/L) fluorescence on brain tissue sections, and brain tissue lipid peroxidation by malondialdehyde (MDA) assay as described previously. ^5 The specificity of detection of O2·‐ was confirmed by adding tiron (10 mmol/L), a non‐enzymatic O2·‐ scavenger. The enzymatic sources of O2·‐ production were identified using inhibitors targeting nitric oxide synthase (L‐N^G‐Nitro arginine methyl ester, L‐NAME, 100 μmol/L), the mitochondrial complex‐1 enzymes (rotenone, 50 μmol/L), xanthine oxidase (oxypurinol, 250 μmol/L), flavo‐proteins (diphenyleneiodonium, DPI, 20 μmol/L), or superoxide dismutase (SOD) (200 U/mL). The DHE fluorescence was captured using a Nikon fluorescence microscope (Eclipse Ti2‐E). The fluorescence intensity was quantified from at least three random images per section with three sections/per sample. […] Body weights were measured weekly. […] The body weights were recorded and organs were harvested.

## COc1cc(C(C)=O)ccc1O [Apocynin, 4‐hydroxy‐3‐methoxyacetophenone]
[1]
  effect on brain Nox2 expression: significantly reduced
[2]
  effect on HFD-induced ROS production / oxidative stress in brain, liver and heart: significant reductions
[2]; listed as apocynin
  effect on HFD-induced ROS production / oxidative stress in brain, liver and heart: reduced significantly
